Earlier results, collected in patent publication US8197866B1, “Herbal treatment for diabetes mellitus, type II” (priority 2009, dated 2012).

Columns and labels:
[1] = tested on: TPA-mediated tumor promotion
[2] = tested on: streptozocin-induced diabetes

| Structure (SMILES) | effect on TPA-mediated tumor promotion [1] | anti-diabetic activity [2] |
| --- | --- | --- |
| O=c1cc(-c2ccc(O)cc2)oc2cc(O)cc(O)c12 [apigenin] | inhibitory effect |  |
| C[C@@H]1O[C@@H](OC[C@H]2O[C@@H](Oc3cc(O)cc4oc(-c5ccc(O)c(O)c5)cc(=O)c34)[C@H](O)[C@@H](O)[C@@H]2O)[C@H](O)[C@H](O)[C@H]1O [luteolin 5-rutinoside] |  | marked anti-diabetic activity |
